Key:
[1] = Organ uptake (biodistribution) of 99mTc activity in mice after intravenous administration; type: in vivo; details: i.v.; for Organ uptake of 99mTc, Carcass / Organ uptake of 99mTc, Intestines / Organ uptake of 99mTc, Kidney / Organ uptake of 99mTc, Liver / Organ uptake of 99mTc, Lung / Organ uptake of 99mTc, Stomach / Organ uptake of 99mTc, Tail: average of four animals ± SD
Method: (§1) The ^99m Tc complex used for the animal studies was prepared in Example 6 following both methods of reduction, stannous chloride or dithionite. The ^99m Tc-MGHA complexes labeled by either reduction method were tested in animals. The mass concentrations of the ^99m Tc complex administered to test animals were approximately 0.04 mg/kg body weight for rabbits and 13.0 mg/kg body weight for mice. The radioactivity administered to rabbits and mice were about 0.5 mCi and 1.5 mCi respectively. The pH of the injectant solution was approximately 5 to 6.
Nonfasted male mice (1CR strain) weighing 20-24 grams were administered in the tail vein with 0.2 mL of a ^99m Tc-complex solution. At 15, 30, 60 minutes post administration groups of four animals were sacrificed by cervical dislocation and selected organs removed for ^99m Tc assay in a gross ionization counting chamber. The percentage of the injected dose corrected for ^99m Tc decay was calculated for the various organs at each sacrifice time.
A ^99m Tc-MGHA complex prepared via a dithionite reduction of ^99m TcO4^- of Example 6 was administered to female albino mice weighing 20-24 gm. The test drug was administered through the lateral tail vein at a mass dose of approximately 13.0 mg/kg in a volume of 0.2 mL. The corresponding radioactive dose administered to each animal was 1.5 mCi. After injection, groups of four animals were sacrificed (cervical dislocation) at 15, 30 and 60 minutes. The liver, kidney, lung, heart, stomach and intestines (small and large) were removed and assayed for ^99m Tc activity in a gross ionization counting chamber. Also, the tails and remaining carcasses were individually assayed for ^99m Tc activity.
Knowing the amount of ^99m Tc activity administered (assaying for ^99m Tc in the syringe before and after injection) and the amount assayed in the various organs, the percentage of injected dose (% ID) was calculated as: [formula] All activities (Ci) were initially corrected for ^99m Tc decay back to a fixed starting time using the standard first order differential equation for decay correction (see below): […]
where N0 and N1 are initial and final activities (Ci) respectively. The half-life (T1/2) for ^99m Tc decay is 6.02 hr. The value of t is the elapsed time (hrs.) for the correction.
The results of ^99m Tc uptake in various organs and tissues in mice administered ^99m Tc-MGHA labeled via a dithionite reduction is given in Table 1.
A ^99m Tc-MGHA complex prepared via a stannous chloride reduction of 99mTcO.sbsb.4^- of Example 6 was administered to female albino mice weighing 20-24 gm. The same methods and procedures given in Example 19 were used to calculate the % ID for each organ.

[2] = Gamma camera imaging / regional areas of interest in rabbits after intravenous administration; type: in vivo, rabbits (New Zealand White); details: i.v.; for Gamma camera count densities (RAI): rabbits
Method: as §1
Nonanesthetized and nonfasted male rabbits (New Zealand White) weighing 3.0-3.5 kg were restrained in dorsal recumbancy approximately 2-3 cm from the face of the gamma camera. After intravenous administration of 0.1 mL of the ^99m Tc-labeled complex solution in the marginal ear vein, anterior images were stored by a dedicated computer during injection, and 5, 10, 15, 20 and 30 minutes following administration.
The ^99m Tc-complex prepared via a dithionate reduction of Example 6 was administered to male albino rabbits weighing 3.0-3.5 kg. The drug was injected into the marginal ear vein. The mass of drug administered was equivalent to ~0.04 mg/kg while the volume injected was 0.1 mL. The administered dose was ~0.5 mCi. Each test animal was restrained in dorsal recumbancy approximately 2-3 cm from the face of the gamma camera. Immediately after injection, 100-500 k counts were obtained from the gamma camera and stored on floppy disc. The computer controlled the maximum number of counts that could be stored per image. Sequential images were obtained and stored on disc at 5, 10, 15, 20 and 30 minutes following administration.
After all images were stored, quantitative image analysis was utilized to obtain count densities in regional areas of interest (RAI). The RAIs were delineated as distinct anatomical structures. Three distinct areas were observed.
A ^99m Tc-complex prepared via a stannous chloride reduction of Example 6 was administtered to male albino rabbits weighing 3.0-3.5 kg. […]

[3] = mice, dithionite reduction, 15 min.
[4] = mice, dithionite reduction, 30 min.
[5] = mice, dithionite reduction, 60 min.

In the case of `CNC(=O)C1CC[S][99Tc-]23(=[O])[S]CC[N]2CC(=O)[N]13` [^99m Tc-MGHA, [2-[[1-(2mercaptoethyl)-2-(methylamino)-2-oxoethyl]-N-(2-mercaptoethyl)glycinato-N,N',S,S']oxotechnetate-99m], the “Excretion of activity from the body” value ([1]; mice) is reported as “rapid excretion of activity from the body”, the “Total remaining activity (% injected dose)” value ([1]; mice, 30 minutes) is reported as “approximately one-half of the injected dose” and the “Organ uptake of 99mTc, Carcass” value ([1]; mice, SnCl2 reduction, 15 min.) is reported as 17.4 ± 2.8 % Injected Dose. The “Organ uptake of 99mTc, Intestines” value ([1]; mice, SnCl2 reduction, 15 min.) was 28.7 ± 6.1 % Injected Dose, the “Organ uptake of 99mTc, Kidney” value ([1]; mice, SnCl2 reduction, 15 min.) was 3.3 ± .9 % Injected Dose and the “Organ uptake of 99mTc, Liver” value ([1]; mice, SnCl2 reduction, 15 min.) was 13.3 ± 5.4 % Injected Dose. For the same compound, the “Organ uptake of 99mTc, Lung” value ([1]; mice, SnCl2 reduction, 15 min.) was “.9 ± .4 % Injected Dose”, the “Organ uptake of 99mTc, Stomach” value ([1]; mice, SnCl2 reduction, 15 min.) was “.3 ± .4 % Injected Dose” and the “Organ uptake of 99mTc, Tail” value ([1]; mice, SnCl2 reduction, 15 min.) was 1.4 ± .7 % Injected Dose. The “Organ uptake of 99mTc, Carcass” value ([1]; mice, SnCl2 reduction, 30 min.) was 5.7 ± 2.9 % Injected Dose, the “Organ uptake of 99mTc, Intestines” value ([1]; mice, SnCl2 reduction, 30 min.) was 27.3 ± 7.0 % Injected Dose and the “Organ uptake of 99mTc, Kidney” value ([1]; mice, SnCl2 reduction, 30 min.) was 1.6 ± .4 % Injected Dose. The “Organ uptake of 99mTc, Liver” value ([1]; mice, SnCl2 reduction, 30 min.) was 6.1 ± .9 % Injected Dose, the “Organ uptake of 99mTc, Lung” value ([1]; mice, SnCl2 reduction, 30 min.) was “.2 ± .2 % Injected Dose” and the “Organ uptake of 99mTc, Stomach” value ([1]; mice, SnCl2 reduction, 30 min.) was “.6 ± .9 % Injected Dose”. For the same compound, the “Organ uptake of 99mTc, Tail” value ([1]; mice, SnCl2 reduction, 30 min.) was “.14 ± .2 % Injected Dose”, the “Organ uptake of 99mTc, Carcass” value ([1]; mice, SnCl2 reduction, 60 min.) was 12.4 ± 5.1 % Injected Dose and the “Organ uptake of 99mTc, Intestines” value ([1]; mice, SnCl2 reduction, 60 min.) was 29.3 ± 10.4 % Injected Dose. For the same compound, the “Organ uptake of 99mTc, Kidney” value ([1]; mice, SnCl2 reduction, 60 min.) was 2.3 ± .8 % Injected Dose, the “Organ uptake of 99mTc, Liver” value ([1]; mice, SnCl2 reduction, 60 min.) was 7.7 ± 2.0 % Injected Dose and the “Organ uptake of 99mTc, Lung” value ([1]; mice, SnCl2 reduction, 60 min.) was “.6 ± .3 % Injected Dose”. The “Organ uptake of 99mTc, Stomach” value ([1]; mice, SnCl2 reduction, 60 min.) was “.1 ± .2 % Injected Dose”, the “Organ uptake of 99mTc, Tail” value ([1]; mice, SnCl2 reduction, 60 min.) was “.7 ± .3 % Injected Dose” and the “Kidney uptake of activity over time” value ([1]; mice, at the various time intervals examined) was “declining at the various time intervals examined”. The “Organ uptake of 99mTc, Carcass” value [1, 3] was 21.9 ± 2.9 % Injected Dose, the “Organ uptake of 99mTc, Intestines” value [1, 3] was 16.8 ± 3.0 % Injected Dose and the “Organ uptake of 99mTc, Kidney” value [1, 3] was 3.1 ± .6 % Injected Dose. For the same compound, the “Organ uptake of 99mTc, Liver” value [1, 3] was 11.3 ± 1.0 % Injected Dose, the “Organ uptake of 99mTc, Lung” value [1, 3] was “.9 ± .2 % Injected Dose” and the “Organ uptake of 99mTc, Stomach” value [1, 3] was “.3 ± .01 % Injected Dose”. For the same compound, the “Organ uptake of 99mTc, Tail” value [1, 3] was 1.7 ± 1.0 % Injected Dose, the “Organ uptake of 99mTc, Carcass” value [1, 4] was 13.4 ± 5.3 % Injected Dose and the “Organ uptake of 99mTc, Intestines” value [1, 4] was 20.5 ± 2.0 % Injected Dose. For the same compound, the “Organ uptake of 99mTc, Kidney” value [1, 4] was 3.4 ± .5 % Injected Dose, the “Organ uptake of 99mTc, Liver” value [1, 4] was 7.6 ± .9 % Injected Dose and the “Organ uptake of 99mTc, Lung” value [1, 4] was “.3 ± .1 % Injected Dose”. For the same compound, the “Organ uptake of 99mTc, Stomach” value [1, 4] was “.1 ± .1 % Injected Dose”, the “Organ uptake of 99mTc, Tail” value [1, 4] was “.3 ± .1 % Injected Dose” and the “Organ uptake of 99mTc, Carcass” value [1, 5] was 18.3 ± 2.5 % Injected Dose. The “Organ uptake of 99mTc, Intestines” value [1, 5] was 16.9 ± 1.4 % Injected Dose, the “Organ uptake of 99mTc, Kidney” value [1, 5] was 3.9 ± .6 % Injected Dose and the “Organ uptake of 99mTc, Liver” value [1, 5] was 10.2 ± 1.6 % Injected Dose. The “Organ uptake of 99mTc, Lung” value [1, 5] was “.5 ± .3 % Injected Dose”, the “Organ uptake of 99mTc, Stomach” value [1, 5] was “.8 ± .9 % Injected Dose” and the “Organ uptake of 99mTc, Tail” value [1, 5] was 1.1 ± .4 % Injected Dose. The Kidney uptake ([1]; mice, sacrifice times greater than 15 minutes post injection) was “little kidney uptake”, the “Clearance of 99mTc activity out of the body” value ([1]; mice, within the first 15 minutes) was “fast clearance out of the body within the first 15 minutes” and the “Suggested route of 99mTc clearance” value ([1]; test animals, indirect evidence) was “possible kidney clearance”. The “Distinct areas observed in quantitative image analysis (RAI)” value ([2]; male albino rabbits, dithionite reduction, ~0.5 mCi, up to 30 minutes) was “The left and right kidneys and the bladder were clearly defined”, the “Gamma camera count densities (RAI)” value ([2]; SnCl2 reduction method) was “significant count densities in regions where the right and left kidneys were visualized” and the “Gamma camera count densities (RAI)” value ([2]; dithionite reduction method) was “significant count densities in regions where the right and left kidneys were visualized”.
